Data as given in patent publication USRE37355E, “6-dimethylaminomethyl-1-phenyl-cyclohexane compounds as pharmaceutical active ingredients” (priority 1995, dated 2001).

Test system: mice
Assay: Testing for analgesia using the tail flick test on mice
Assay type: in vivo, NMRI mice
Details: Mus musculus, 20 min; NMRI mice, intravenous, 20 minutes after administration; Litchfield and Wilcoxon; read-out: ED50 (tail flick test, analgesia)
Text: Testing for analgesia using the tail flick test on mice
The analgesic effectiveness of the compounds according to the invention was investigated in the thermal radiation (tail flick) test on mice using the method of D'Amour and Smith (J. Pharm. Exp. Ther. 72, 74-79 (1941). […]. The animals were placed in a special test cage and the bases of their tails were exposed to the focused thermal radiation from an electric lamp (Rhema Analgesiemeter Type 3010). The lamp intensity was adjusted so that the time from switching on the lamp until the sudden twitching away of the tail (latency of pain) was 3-5 seconds for untreated animals. Before the administration of a compound according to the invention, the animals were pre-tested twice within five minutes and the average value of these measurements was calculated as the pre-test average. The pain measurement was made 20, 40 and 60 minutes after intravenous administration. […]. In order to determine the dosage-dependency, the respective compound according to the invention was applied in doses increasing logarithmically by a factor of 3-5, which included the threshold and the maximum effective dose each time. The ED50 values were determined from the number of analgesic animals by the method of Litchfield and Wilcoxon (J. Pharm. Exp. Ther. 96, 99-113, (1949)). Calculation of the ED50 was made at the effective maximum 20 minutes after intraveneous adminstration of the substance.

Question: With `CC(=O)Oc1ccccc1C(=O)Oc1cccc([C@@H]2CCCC[C@@H]2CN(C)C)c1.Cl` [(-10), (-)-(1R,2S)-2-acetoxy-benzoic acid-3-(2-dimethylaminomethyl-cyclohexyl)-phenyl ester hydrochloride] as the compound, how does the ED50 read?
Answer: 8.71 mg/kg

Question: Which ED50 does the source give for `CN(C)C[C@@H]1CCCC[C@@H]1c1cccc(O)c1.Cl` [(+7), (+)-(1S,2R)-3-(2-dimethylaminomethyl-cyclohexyl)-phenol hydrochloride] here?
Answer: 1.13 mg/kg

Question: How did the ED50 turn out when `CN(C)C[C@H]1CCCC[C@H]1c1cccc(O)c1.Cl` [(-7), (-)-(1R,2S)-3-(2-dimethylaminomethyl-cyclohexyl)-phenol hydrochloride] was run?
Answer: 5.9 mg/kg

Question: Which ED50 does the source give for `CN(C)C[C@H]1CCCC[C@H]1c1cccc(OC(=O)C(C)(C)C)c1.Cl` [(-8), (-)-(1R,2S)-2,2-dimethylpropionic acid-3-(2-dimethylaminomethyl-cyclohexyl)-phenyl ester hydrochloride] here?
Answer: 4.61 mg/kg

Question: How did the ED50 turn out when `COc1cccc([C@@]2(O)C[C@H](O)CC[C@@H]2CN(C)C)c1.Cl` (racemic) [(17), (1RS,3RS,6RS)-6-dimethylaminomethyl-1-(3-methoxy-phenyl)-cyclohexane-1,3-diol hydrochloride] was run?
Answer: 5.54 mg/kg

Question: How did the ED50 turn out when `CN(C)C[C@H]1CCCC[C@]1(F)c1cccc(O)c1.Cl` [(+1), (+)-(1R,2R)-3-(2-dimethylaminomethyl-1-fluoro-cyclohexyl)-phenol hydrochloride] was run?
Answer: 0.64 mg/kg

Question: For `CN(C)C[C@H]1CCCC[C@]1(Cl)c1cccc(O)c1.Cl` [(+5), (+)-(1R,2R)-3-(1-chloro-2-dimethylaminomethyl-cyclohexyl)-phenol hydrochloride], which ED50 is on record?
Answer: 2.78 mg/kg

Question: With `CN(C)C[C@H]1CC[C@@H](O)C[C@]1(O)c1cccc(O)c1.Cl` [(+21), (+)-(1R,3R,6R)-6-dimethylaminomethyl-1-(3-hydroxy-phenyl)-cyclohexane-1,3-diol hydrochloride] as the compound, how does the ED50 read?
Answer: 7.34 mg/kg

Question: `COc1cccc([C@@H]2CCCC[C@@H]2CN(C)C)c1.Cl` [(+6), (+)-(1S,2R)-[2-(3-methoxy-phenyl)-cyclohexylmethyl]-dimethylamine hydrochloride] was tested. Which ED50 did it give?
Answer: 10.7 mg/kg

Question: Which ED50 does the source give for `COc1cccc([C@@]2(O)C[C@H](O)CC[C@@H]2CN(C)C)c1.Cl` [(+17), (+)-(1R,3R,6R)-6dimethylaminomethyl-1-(3-methoxy-phenyl)-cyclohexane-1,3-diol hydrochloride] here?
Answer: 3.93 mg/kg

Question: With `CC(C)COC(=O)Oc1cccc([C@@H]2CCCC[C@@H]2CN(C)C)c1.Cl` [(-11), (-)-(1R,2S)-carbonic acid-[3-(2-dimethylaminomethyl-cyclohexyl)-phenyl]-ester-isobutyl ester hydrochloride] as the compound, how does the ED50 read?
Answer: 5.01 mg/kg

Question: How did the ED50 turn out when `CN(C)C[C@@H]1CCCC[C@@]1(F)c1cccc(O)c1.Cl` [(-1), (-)-(1S,2S)-3-(2-dimethylaminomethyl-1-fluoro-cyclohexyl)-phenol hydrochloride] was run?
Answer: 2.28 mg/kg

Same assay, conditions: Mus musculus, iv, 20 min, read-out: ED50 (tail flick test, analgesia)

Question: `COc1cccc([C@@]2(O)CCCC[C@@H]2CN(C)C)c1.Cl` (racemic) [Tramadol, (1RS,2RS)-2[(dimethylamino)methyl]-1-(3-methoxyphenyl)cyclohexanol hydrochloride, reference compound] was tested. Which ED50 did it give?
Answer: 13.6 mg/kg
